PMC7582770, “Synthesis of “All-Cis” Trihydroxypiperidines from a Carbohydrate-Derived Ketone: Hints for the Design of New β-Gal and GCase Inhibitors” (Molecules, 2020)
Numbering of substitutions follows the chain as printed. Like-named read-outs stand apart in the source and are kept apart here. Marks after values point to notes of the source that are not given here.

Columns and labels:
[1] = system: mutant β-Gal in GM1-gangliosidosis patient fibroblasts; conditions: cited from earlier work
human lysosomal β-Gal = conditions: cited from earlier work
[2] = target: T1, human lysosomal β-glucosidase (GCase) (Homo sapiens, UniProt P04062); experiment: GCase inhibition in human leukocyte homogenates; type: biochemical; conditions: compounds 1 mM; human leukocytes extracts
T1 construct: in leukocytes isolated from healthy donors (controls); endogenous in cells; host or cells: human leukocytes from healthy donors, disrupted by sonication (crude homogenate)
T1 sequence (P04062 40-536): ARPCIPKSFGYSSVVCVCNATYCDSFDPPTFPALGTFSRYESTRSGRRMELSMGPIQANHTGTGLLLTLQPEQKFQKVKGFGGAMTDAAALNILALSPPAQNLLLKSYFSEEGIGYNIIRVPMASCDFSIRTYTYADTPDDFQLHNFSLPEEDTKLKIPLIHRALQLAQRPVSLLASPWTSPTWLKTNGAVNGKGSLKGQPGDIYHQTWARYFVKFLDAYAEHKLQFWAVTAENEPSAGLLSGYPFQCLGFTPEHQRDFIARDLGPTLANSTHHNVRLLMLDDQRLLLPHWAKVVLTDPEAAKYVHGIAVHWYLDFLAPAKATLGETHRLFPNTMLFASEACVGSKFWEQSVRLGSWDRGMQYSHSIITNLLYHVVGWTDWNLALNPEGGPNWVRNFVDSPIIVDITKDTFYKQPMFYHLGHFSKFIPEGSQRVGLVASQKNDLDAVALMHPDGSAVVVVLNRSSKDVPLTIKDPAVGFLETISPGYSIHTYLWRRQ
Experimental: (§1) The new compounds were screened at 1 mM concentration towards β-galactosidase (β-Gal) and β-glucosidase (GCase) in leukocytes isolated from healthy donors (controls). Isolated leukocytes were disrupted by sonication, and a Micro BCA Protein Assay Kit (Sigma–Aldrich, St. Louis, MO, USA) was used to determine the total protein amount for the enzymatic assay, according to the manufacturer’s instructions.
GCase activity was measured in a flat-bottomed 96-well plate. Compound solution (3 µL), 4.29 µg/µL leukocytes homogenate (7 µL), and substrate 4-methylumbelliferyl-β-D-glucoside (3.33 mM, 20 µL, Sigma–Aldrich Chemie Gmbh, Munich, Germany)) in citrate/phosphate buffer (0.1:0.2, M/M, pH 5.8) containing sodium taurocholate (0.3%) and Triton X-100 (0.15%) at 37 °C were incubated for 1 h. The reaction was stopped by addition of sodium carbonate (200 µL; 0.5 M, pH 10.7) containing Triton X-100 (0.0025%), and the fluorescence of 4-methylumbelliferone released by β-glucosidase activity was measured in SpectraMax M2 Microplate Reader (λex = 365 nm and λem = 435 nm; Molecular Devices LLC, San Jose, CA, US). Percentage GCase inhibition is given with respect to the control (without compound). Data are mean SD (n = 3). For compounds showing GCase inhibitory activity higher than 80% at 1 mM concentration, the IC50 values were determined by measuring the initial hydrolysis rate with 4-methylumbelliferyl-β-D-glucoside (3.33 mM). Data obtained were fitted by using the appropriate equation (for more details, see the Supplementary Materials).
IC50 for compounds 9, 10, 12 and 21 towards human lysosomal β-glucosidase The IC50 values of inhibitors against β-glucosidase were determined by measuring the initial hydrolysis rate with 4-methylumbelliferyl-β-D-glucoside (3.33 mM). Data obtained were fitted to the following equation using the Origin Microcal program. where Vi/Vo, represent the ratio between the activity measured in the presence of the inhibitor (Vi) and the activity of the control without the inhibitor (V0), “x” the inhibitor concentration, Max and Min, the maximal and minimal enzymatic activity observed, respectively.
Figure S48: IC of compound 9 towards GCase
Figure S49: IC50 of compound 10 towards GCase
(also on this page, place not known: Min x MinMax Vo Vi slope + […] […] […] […] […] […]+ −= 1 be tween (V i) (V 0), IC50) […]

[3] = target: T2, human lysosomal β-galactosidase (β-Gal) (Homo sapiens, UniProt P16278); experiment: β-Gal inhibition in human leukocyte homogenates; type: biochemical; conditions: compounds 1 mM; human leukocytes extracts
T2 construct: in leukocytes isolated from healthy donors (controls); endogenous in cells; host or cells: human leukocytes from healthy donors, disrupted by sonication (crude homogenate)
T2 sequence (P16278 29-677): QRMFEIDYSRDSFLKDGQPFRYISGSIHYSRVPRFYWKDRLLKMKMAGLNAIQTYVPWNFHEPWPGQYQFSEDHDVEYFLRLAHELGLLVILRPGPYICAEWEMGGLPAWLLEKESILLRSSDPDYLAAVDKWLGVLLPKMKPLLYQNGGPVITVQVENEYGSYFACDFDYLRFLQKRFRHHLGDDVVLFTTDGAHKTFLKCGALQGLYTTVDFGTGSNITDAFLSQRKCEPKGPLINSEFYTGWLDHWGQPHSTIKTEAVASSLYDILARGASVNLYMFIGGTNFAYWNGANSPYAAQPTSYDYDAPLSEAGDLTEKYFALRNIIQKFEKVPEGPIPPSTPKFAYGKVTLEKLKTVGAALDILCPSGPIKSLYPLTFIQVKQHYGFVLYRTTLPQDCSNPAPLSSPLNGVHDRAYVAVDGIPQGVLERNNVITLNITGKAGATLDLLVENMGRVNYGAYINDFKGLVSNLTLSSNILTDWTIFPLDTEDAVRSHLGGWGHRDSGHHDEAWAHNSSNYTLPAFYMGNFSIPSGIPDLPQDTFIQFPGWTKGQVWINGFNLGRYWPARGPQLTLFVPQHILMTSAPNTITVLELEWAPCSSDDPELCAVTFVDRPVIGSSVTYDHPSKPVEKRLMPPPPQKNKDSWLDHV
Experimental: as §1
β-Gal activity was measured in a flat-bottomed 96-well plate. Azasugar solution (3 μL), 4.29 μg/μL leukocytes homogenate 1:10 (7 μL), and substrate 4-methylumbelliferyl β-D-galactopyranoside (1.47 mM, 20 μL, Sigma–Aldrich) in acetate buffer (0.1 M, pH 4.3) containing NaCl (0.1 M) and sodium azide (0.02%) were incubated at 37 °C for 1 h. The reaction was stopped by addition of sodium carbonate (200 μL; 0.5 M, pH 10.7) containing Triton X-100 (0.0025%), and the fluorescence 4-methylumbelliferone released by β-galactosidase activity was measured in SpectraMax M2 Microplate Reader (λex = 365 nm and λem = 435 nm; Molecular Devices LLC, San Jose, CA, US). Inhibition is given with respect to the control (without azasugar). Data are mean SD (n = 3).

[4] = target: T3, GCase in fibroblasts with the N370S/RecNcil mutation (Homo sapiens, UniProt P04062, N409S); design: method as in PMID 26376302; conditions: at 100 µM; cited from earlier work
T3 construct: Fibroblasts with the N370S/RecNcil mutation from patients with Gaucher disease; host or cells: human Gaucher patient fibroblasts, N370S/RecNciI
T3 sequence (P04062 40-536 N409S): T1 sequence (P04062 40-536) with N370S

[5] = target: T1, human lysosomal β-glucosidase (GCase); conditions: human leukocytes extracts, cited from earlier work; for GCase Inhibition (%): compounds 1 mM
[6] = target: T2, human lysosomal β-galactosidase (β-Gal); design: method as in PMID 32200326; conditions: compounds 1 mM; human leukocytes extracts; cited from earlier work

CCCCCCCCCN1C[C@H](O)[C@@H](O)[C@@H](O)[C@H]1CO [compound 2, N-nonyl-DGJ]
rescue of intracellular activity of mutant β-Gal in GM1-gangliosidosis patient fibroblasts [1]: able to rescue the intracellular activity of mutant β-Gal

OC[C@H]1CNC[C@@H](O)[C@H]1O [compound 3, 4-epi-isofagomine]
IC50 (human lysosomal β-Gal): 1 µM

CCCCC[C@H]1NC[C@@H](O)[C@@H](O)[C@H]1CO [compound 4]
IC50 (human lysosomal β-Gal): 0.01 µM | rescue of mutant β-Gal activity in fibroblasts from GM1-gangliosidosis patients [1]: able to rescue mutant β-Gal activity

CCCCCCCCC[C@H]1NC[C@@H](O)[C@@H](O)[C@H]1CO [compound 5]
IC50 (human lysosomal β-Gal): 0.0004 µM | rescue of mutant β-Gal activity in fibroblasts from GM1-gangliosidosis patients [1]: able to rescue mutant β-Gal activity

O[C@@H]1[C@H](O)[C@H](O)CN[C@H]1C[C@H](O)c1ccccc1 [compound 6]
increase of β-Gal activity in GM1 gangliosidosis patient fibroblasts [1]: 2–6 fold

CCCCCCCC[C@@H](O)C[C@@H]1NC[C@@H](O)[C@@H](O)[C@H]1O [compound 7]
increase of β-Gal activity in GM1 gangliosidosis patient fibroblasts [1]: 2–6 fold

O[C@@H]1CNC[C@@](O)(CCc2ccccc2)[C@@H]1O [compound 11, (3S, 4R, 5R)-3,4,5-Trihydroxy-3-(2-Phenylethyl)-Piperidine]
inhibition at 1000 µM [2]: 36% | inhibition at 1000 µM [3]: 0%

CC[C@]1(O)CNC[C@@H](O)[C@H]1O [compound 13, (3S, 4R, 5R)-3-Ethyl-3,4,5-Trihydroxypiperidine]
inhibition at 1000 µM [2]: 30% | inhibition at 1000 µM [3]: 3%

O[C@@H]1CNC[C@@](O)(CCc2ccsc2)[C@@H]1O [compound 14, (3S, 4R, 5R)-3,4,5-Trihydroxy-3-((2-(3-Thienyl) Ethyl))-Piperidine]
inhibition at 1000 µM [2]: 9% | melting point: 73 to 75 °C | inhibition at 1000 µM [3]: 16%

CN(C)c1ccc(CC[C@]2(O)CNC[C@@H](O)[C@H]2O)cc1 [compound 15]
inhibition at 1000 µM [2]: 6% | inhibition at 1000 µM [3]: 6%

O[C@@H]1CNC[C@@](O)(C#Cc2ccccc2)[C@@H]1O [compound 32, (3S, 4R, 5R)-3,4,5-Trihydroxy-3-(Phenylethynyl)-Piperidine]
inhibition at 1000 µM [2]: 25% | β-Gal Inhibition (%) [3]: 16%

CCCCCCC#C[C@]1(O)CNC[C@@H](O)[C@H]1O [compound 33, (3S, 4R, 5R)-3,4,5-Trihydroxy-3-(oct-1-yn-1-yl)-Piperidine]
inhibition at 1000 µM [2]: 65% | inhibition at 1000 µM [3]: 4%

CCCCCCCCN[C@H]1CNC[C@@H](O)[C@H]1O [compound 36]
rescue of GCase activity [4]: 1.5 fold | GCase Inhibition (%) [5]: 93 ^c % | IC50 [5]: 40 ± 3 µM | inhibition at 1000 µM [3]: 15%

CCCCCCCC[C@H]1NC[C@@H](O)[C@@H](O)[C@@H]1O [compound 37]
GCase Inhibition (%) [5]: 100 ^d % | IC50 [5]: 29 ± 2 µM | β-Gal Inhibition (%) [6]: 14 ^d %

CCCCCCCCCCCC[C@H]1NC[C@@H](O)[C@@H](O)[C@@H]1O [compound 38]
GCase Inhibition (%) [5]: 100 ^d % | IC50 [5]: 1.5 ± 0.1 µM | β-Gal Inhibition (%) [6]: 5 ^d %

CCCCCCCC[C@@H]1NC[C@@H](O)[C@@H](O)[C@@H]1O [compound 39]
GCase Inhibition (%) [5]: 80 ^d % | IC50 [5]: 94 ± 5 µM | β-Gal Inhibition (%) [6]: 31 ^d %
